IC50 data for 23 molecules are collected here from patent publication US10611778B2, “Fused bicyclic inhibitors of menin-MLL interaction” (Janssen Pharmaceutica NV, priority 2016, dated 2020).

Broadly, the IC50 is the midpoint of a concentration-inhibition curve.

One assay has as its system MV-4-11. The assay can be described thus: Proliferation assay (spheroid assay) MV-4-11. In kind it is cell-based, human. To be noted: Homo sapiens, MV4-11, MV-4-11; averaged values over all measurements; read-out: Spheroid assay MV-4-11 (IC50). As for the experimental part:
The anti-proliferative effect of menin/MLL protein/protein interaction inhibitor test compounds was assessed in human leukemia cell lines. The cell lines MV-4-11 and MOLM14 harbor MLL translocations and express the MLL fusion proteins MLL-AF4 and MLL-AF9, respectively, as well as the wildtype protein from the second allele. […] K562 and KG1 were used as a control cell lines containing two MLL wildtype alleles in order to exclude compounds that display general cytotoxic effects.
MV-4-11 and MOLM14 were cultured in RPMI-1640 (Sigma Aldrich) supplemented with 10% fetal bovine serum (HyClone), 2 mM L-glutamine (Sigma Aldrich) and 50 μg/ml gentamycin (Gibco). K562 were propagated in RPMI-1640 (Sigma Aldrich) supplemented with 20% fetal bovine serum (HyClone), 2 mM L-glutamine (Sigma Aldrich) and 50 μg/ml gentamycin (Gibco). KG1 were cultured in Iscove's MDM (Gibco) supplemented with 20% fetal bovine serum (HyClone), 2 mM L-glutamine (Sigma Aldrich) and 50 μg/ml gentamycin (Gibco).
In order to assess the anti-proliferative effects, 1,500 MV-4-11, 300 MOLM14, 750 K562 or 1,300 KG1 cells were seeded in 200 μl media per well in 96-well round bottom, ultra-low attachment plates (Costar, catalogue number 7007). Cell seeding numbers were chosen based on growth curves to ensure linear growth throughout the experiment. Test compounds were added at different concentrations and the DMSO content was normalized to 0.3%. Cells were incubated for 8 d at 37° C. and 5% CO2. Spheroid like growth was monitored in real-time by live-cell imaging (IncuCyteZOOM, Essenbio, 4× objective) acquiring one image every four hours for 8 d. Confluence (%) as a measure of spheroid size was determined using an integrated analysis tool.
In order to determine the cumulative effect of the test compounds over time, the area under the curve (AUC) in a plot of confluence against time was calculated. Confluence at the beginning of the experiment (t=0) was used as baseline for the AUC calculation.
Absolute IC50 values were calculated according to the following procedure: % Control=(AUC sample/AUC control)*100
AUC control=mean AUC of control values (cells without compound/DMSO as vehicle control)
A non-linear curve fit was applied using the least squares (ordinary) fit method to the plot of % control versus compound concentration. Based on this, the absolute IC50 value (half maximal inhibitory concentration of the test compound causing an anti-proliferative effect of 50% relative to the vehicle control) was calculated.

The target of assay [1] is T1, Menin/MLL (terbium chelate-labeled menin, FITC-MBM1 peptide) (Homo sapiens, UniProt O00255, T541A).
T1 construct: Menin (a.a. 1-610-6×his tag) was labeled with terbium cryptate as follows
T1 sequence (O00255 with tags, fused parts or gaps T541A): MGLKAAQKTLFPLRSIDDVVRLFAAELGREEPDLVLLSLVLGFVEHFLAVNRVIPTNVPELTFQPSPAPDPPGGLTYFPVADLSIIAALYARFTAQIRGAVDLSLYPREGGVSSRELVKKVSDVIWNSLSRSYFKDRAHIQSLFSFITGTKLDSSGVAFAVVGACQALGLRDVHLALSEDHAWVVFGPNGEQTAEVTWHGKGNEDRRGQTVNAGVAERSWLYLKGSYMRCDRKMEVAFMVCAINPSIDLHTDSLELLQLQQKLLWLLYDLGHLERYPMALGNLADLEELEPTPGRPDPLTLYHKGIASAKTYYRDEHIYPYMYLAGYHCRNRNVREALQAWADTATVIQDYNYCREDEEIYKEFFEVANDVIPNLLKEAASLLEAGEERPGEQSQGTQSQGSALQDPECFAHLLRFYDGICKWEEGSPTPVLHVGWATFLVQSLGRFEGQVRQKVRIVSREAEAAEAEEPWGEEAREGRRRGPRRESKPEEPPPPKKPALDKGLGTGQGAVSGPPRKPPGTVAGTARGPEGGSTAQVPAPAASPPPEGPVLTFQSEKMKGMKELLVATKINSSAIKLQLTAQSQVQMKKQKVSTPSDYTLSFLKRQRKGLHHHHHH
The assay can be described thus: Menin/MLL homogenous time-resolved fluorescence (HTRF) assay. In kind it is binding. The following applies: averaged values over all measurements; read-out: Menin HTRF assay (IC50). As for the experimental part: 3) Menin/MLL Homogenous Time-Resolved Fluorescence (HTRF) Assay
To an untreated, white 384-well microtiter plate was added 40 nL 200× test compound in DMSO and 4 μL 2× terbium chelate-labeled menin (vide infra for preparation) in assay buffer (40 mM Tris-HCl, pH 7.5, 50 mM NaCl, 1 mM DTT and 0.05% Pluronic F-127). After incubation of test compound and terbium chelate-labeled menin for 5 min at ambient temperature, 4 μL 2×FITC-MBM1 peptide (FITC-β-alanine-SARWRFPARPGT-NH2) in assay buffer was added, the microtiter plate centrifuged at 1000 rpm for 1 min and the assay mixtures incubated for 15 min at ambient temperature. The relative amount of menin⋅FITC-MBM1 complex present in an assay mixture is determined by measuring the homogenous time-resolved fluorescence (HTRF) of the terbium/FITC donor/acceptor fluorophore pair using a BMG Pherastar plate reader (ex. 337 nm/terbium em. 490 nm/FITC em. 520 nm) at ambient temperature. The degree of fluorescence resonance energy transfer (the HTRF value) is expressed as the ratio of the fluorescence emission intensities of the FITC and terbium fluorophores (F^em 520 nm/F^em 490 nm). The final concentrations of reagents in the binding assay are 100 pM terbium chelate-labeled menin, 75 nM FITC-MBM1 peptide and 0.5% DMSO in assay buffer. Dose-response titrations of test compounds are conducted using an 11 point, three-fold serial dilution scheme, starting at 31 μM.
Compound potencies were determined by first calculating % inhibition at each compound concentration according to equation 1: % inhibition=((HC−LC)−(HTRF^compound−LC))/(HC−LC))*100 (Eqn 1)
Where LC and HC are the HTRF values of the assay in the presence or absence of a saturating concentration of a compound that competes with FITC-MBM1 for binding to menin, and HTRF^compound is the measured HTRF value in the presence of the test compound. HC and LC HTRF values represent an average of at least 16 replicates per plate.
Where Bottom and Top are the lower and upper asymptotes of the dose-response curve, respectively, IC50 is the concentration of compound that yields 50% inhibition of signal and h is the Hill coefficient.
Preparation of Terbium cryptate labeling of Menin: Menin (a.a. 1-610-6×his tag) was labeled with terbium cryptate as follows. 2 mg of Menin was buffer exchanged into 1× phosphate buffered saline. 16 uM Menin was incubated with 4-fold molar excess NHS-terbium cryptate (Cisbio Bioassays, Bedford, Mass.) for 2 hours at room temperature. The labeled protein was purified away from free label by running the reaction over a Superdex 200 Increase 10/300 GL column at 0.75 ml/min. Peak fractions were collected, aliquoted and frozen at −80° C.
(In general: TR-FRET usually uses a lanthanide donor and a delayed reading to cut background.)

As to `CC(CN1CC[C@@H]2CN(c3ncnc4sc(CC(F)(F)F)cc34)C[C@@H]2C1)c1ccccc1` (single isomer, unassigned) [Compound 49], the concentration for half-maximal inhibition (IC50) in the assay on MV-4-11 is 1900 nM; in assay [1], 44 nM.
The matching figures for `CNc1ccc(CN2CC[C@@H]3CN(c4ncnc5sc(CC(F)(F)F)cc45)C[C@@H]3C2)cn1` (single isomer, unassigned) [Compound 106]: 190 nM and 10 nM.
The like results for `FC(F)(F)Cc1cc2c(N3C[C@H]4CCN(Cc5ccc(C6CC6)nc5)C[C@H]4C3)ncnc2s1` (single isomer, unassigned) [Compound 89] were, in that order, 240 nM and 24 nM.
In the case of `Nc1ccc(CN2CC[C@@H]3CN(c4ncnc5sc(CC(F)(F)F)cc45)C[C@@H]3C2)cn1` (single isomer, unassigned) [Compound 105], the IC50 with MV-4-11 was found to be 220 nM; in assay [1] it was 11 nM.
The like results for `CNc1cc(CN2CC[C@@H]3CN(c4ncnc5sc(CC(F)(F)F)cc45)C[C@@H]3C2)ccn1` (single isomer, unassigned) [Compound 107] were, in that order, 340 nM and 23 nM.
The matching figures for `FC(F)(F)Cc1cc2c(N3C[C@H]4CCN(Cc5ccnnc5)C[C@H]4C3)ncnc2s1` (single isomer, unassigned) [Compound 55]: 3300 nM and 75 nM.
For the molecule `CC(CN1CC[C@@H]2CN(c3ncnc4sc(CC(F)(F)F)cc34)C[C@@H]2C1)C(F)(F)F` (single isomer, unassigned) [Compound 47], the IC50 was found to be 2300 nM in the assay on MV-4-11 and 55 nM in assay [1].
The like results for `FC(F)(F)Cc1cc2c(N3CC[C@@H]4[C@@H](CCN4Cc4ccc[nH]4)C3)ncnc2s1` (single isomer, unassigned) [Compound 85] were, in that order, 3100 nM and 103 nM.
The matching figures for `O=C(C1COC1)N1CCC(CN2CC[C@@H]3CN(c4ncnc5sc(CC(F)(F)F)cc45)C[C@@H]3C2)CC1` (single isomer, unassigned) [Compound 95]: 2100 nM and 69 nM.
Regarding `COCCn1cc(CN2CC[C@@H]3CN(c4ncnc5sc(CC(F)(F)F)cc45)C[C@@H]3C2)cn1` (single isomer, unassigned) [Compound 97], the values for the IC50 (in the assay with MV-4-11; in assay [1]) were 2000 nM and 150 nM, respectively.
Consider `FC(F)(F)Cc1cc2c(N3C[C@H]4CCN(Cc5cncc(Cl)c5)C[C@H]4C3)ncnc2s1` (single isomer, unassigned) [Compound 43], for which the IC50 came out at 1300 nM with MV-4-11 and 97 nM in assay [1].
In the case of `CCOc1ccc(CN2CC[C@@H]3CN(c4ncnc5sc(CC(F)(F)F)cc45)C[C@@H]3C2)cn1` (single isomer, unassigned) [Compound 103], the IC50 turned out to be 1100 nM in the assay with MV-4-11 and 106 nM in assay [1].
Turning to `O=C(c1cccnc1)N1CCC(CN2CC[C@@H]3CN(c4ncnc5sc(CC(F)(F)F)cc45)C[C@@H]3C2)CC1` (single isomer, unassigned) [Compound 96], the IC50 was 1000 nM with MV-4-11 and 45 nM in assay [1].
The like results for `FC(F)(F)Cc1cc2c(N3C[C@H]4CCN(Cc5ccnc(Cl)c5)C[C@H]4C3)ncnc2s1` (single isomer, unassigned) [Compound 65] were, in that order, 1200 nM and 56 nM.
The matching figures for `OCCn1cc(CN2CC[C@@H]3CN(c4ncnc5sc(CC(F)(F)F)cc45)C[C@@H]3C2)cn1` (single isomer, unassigned) [Compound 75]: 1000 nM and 28 nM.
For `COc1ccncc1CN1CC[C@@H]2CN(c3ncnc4sc(CC(F)(F)F)cc34)C[C@@H]2C1` (single isomer, unassigned) [Compound 61], the IC50 with MV-4-11 stood at 1700 nM; in assay [1], 146 nM.
The matching figures for `O=C(c1ccccc1)N1CCC(CN2CC[C@@H]3CN(c4ncnc5sc(CC(F)(F)F)cc45)C[C@@H]3C2)CC1` (single isomer, unassigned) [Compound 94]: 430 nM and 18 nM.
The like results for `Cn1ccc(CN2CC[C@@H]3CN(c4ncnc5sc(CC(F)(F)F)cc45)C[C@@H]3C2)cc1=O` (single isomer, unassigned) [Compound 68] were, in that order, 2900 nM and 266 nM.
Turning to `FC(F)(F)Cc1cc2c(N3C[C@H]4CCN(Cc5ccc(Cl)nc5Cl)C[C@H]4C3)ncnc2s1` (single isomer, unassigned) [Compound 62], the IC50 in the assay with MV-4-11 was determined as 2200 nM; in assay [1], 36 nM.
Consider `OC1(CN2CC[C@@H]3CN(c4ncnc5sc(CC(F)(F)F)cc45)C[C@@H]3C2)CCOCC1` (single isomer, unassigned) [Compound 86], for which the IC50 in the assay with MV-4-11 amounted to 6600 nM; in assay [1] it was 198 nM.
In the case of `Fc1cncc(CN2CC[C@@H]3CN(c4ncnc5sc(CC(F)(F)F)cc45)C[C@@H]3C2)c1` (single isomer, unassigned) [Compound 38], the IC50 was 2300 nM with MV-4-11 and 208 nM in assay [1].
The like results for `O=C(C1CCOCC1)N1CCC(CN2CC[C@@H]3CN(c4ncnc5sc(CC(F)(F)F)cc45)C[C@@H]3C2)CC1` (single isomer, unassigned) [Compound 91] were, in that order, 1200 nM and 30 nM.
Consider `COc1cncc(CN2CC[C@@H]3CN(c4ncnc5sc(CC(F)(F)F)cc45)C[C@@H]3C2)c1` (single isomer, unassigned) [Compound 46], for which the values for the IC50 (in the assay with MV-4-11; in assay [1]) were 1500 nM and 105 nM, respectively.
